Measurements: patent US9510598B2, “Nitrogen-containing heterocyclic compounds for plant disease control” (BAYER CROPSCIENCE AG, priority 2012, dated 2016)

Assay type: physicochemical
Conditions: HPLC on reversed phase columns, method [a]: pH 2.7, 0.1% formic acid in water / acetonitrile, linear gradient 10% to 95% acetonitrile

Structure (SMILES)	log P
C#Cc1cnc2c(C)cc(C3=NOC(OC)(C(=O)NC(C)C)C3)cc2c1 (centres unmarked) [compound 604]	2.94[a]
C#Cc1cnc2c(C)cc(C3=NOC(OC)(C(=O)NCc4cn(CCC)nc4C)C3)cc2c1 (centres unmarked) [compound 610]	2.90[a]
C#Cc1cnc2ccc(C3=NOC(C)(C(=O)NC4CCCCC4)C3)cc2c1 (centres unmarked) [compound 236]	3.25^[a]
C#Cc1cnc2ccc(C3=NOC(C)(C(=O)NCc4cc(OC)ccn4)C3)cc2c1 (centres unmarked) [compound 677]	1.34[a]
C#Cc1cnc2c(Cl)cc(C3=NOC(OC)(C(=O)NCc4cn(CCC)nc4C)C3)cc2c1 (centres unmarked) [compound 588]	2.80[a]
COCC#CC(C)(C)NC(=O)C1(C)CC(c2ccc3ncc(Br)cc3c2)=NO1 (centres unmarked) [compound 299]	3.19[a]
Cc1csc(CNC(=O)C2(C)CC(c3ccc4ncc(Br)cc4c3)=NO2)n1 (centres unmarked) [compound 649]	2.56[a]
CC1(C(=O)NCc2ccncn2)CC(c2ccc3ncc(Br)cc3c2)=NO1 (centres unmarked) [compound 642]	2.01[a]
CC(C)NC(=O)C12CCCC1C(c1ccc3ncc(Br)cc3c1)=NO2 (centres unmarked) [compound 255]	3.19^[a]
COC1(C(=O)NC(C)C)CC(c2cc(C)c3ncc(Br)cc3c2)=NO1 (centres unmarked) [compound 608]	3.37[a]
C#Cc1cnc2c(Cl)cc(C3=NOC(OC)(C(=O)NC4CCC4)C3)cc2c1 (centres unmarked) [compound 592]	3.02[a]
C#Cc1cnc2ccc(C3=NOC(C)(C(=O)NC(c4cccc(C)c4)C(F)(F)F)C3)cc2c1 (centres unmarked) [compound 354]	3.92[a]
COc1cccc(CNC(=O)C2(C)CC(c3ccc4ncc(Br)cc4c3)=NO2)n1 (centres unmarked) [compound 667]	3.11[a]
C=C(C)C1(C(=O)NCCCOCC)CC(c2ccc3ncc(Br)cc3c2)=NO1 (centres unmarked) [compound 518]	3.37[a]
CC(NC(=O)C1(C)CC(c2ccc3ncc(Br)cc3c2)=NO1)c1ccc(Cl)cc1 (centres unmarked) [compound 348]	3.87[a]
C#Cc1cnc2c(C)cc(C3=NOC(C)(C(=O)NC(C)C)C3)cc2c1 (centres unmarked) [compound 571]	3.06[a]
CON(C(=O)C1(C)CC(c2ccc3ncc(Br)cc3c2)=NO1)C(C)C (centres unmarked) [compound 651]	3.59[a]
C#Cc1cnc2ccc(C3=NOC(C)(C(=O)NCc4nc(C)cs4)C3)cc2c1 (centres unmarked) [compound 648]	2.26[a]
C#Cc1cnc2ccc(C3=NOC(C)(C(=O)N(OC)C(C)C)C3)cc2c1 (centres unmarked) [compound 650]	3.15[a]
C#Cc1cnc2ccc(C3=NOC(C)(C(=O)NCc4ccc(OC)cn4)C3)cc2c1 (centres unmarked) [compound 631]	1.96[a]
C#Cc1cnc2ccc(C3=NOC(C)(C(=O)NC(C)c4nn(C)c(=O)n4C)C3)cc2c1 (centres unmarked) [compound 352]	1.76[a]
CCC(C)N(OC)C(=O)C1(C)CC(c2ccc3ncc(Br)cc3c2)=NO1 (centres unmarked) [compound 659]	3.96[a]
CCn1cc(CNC(=O)C2(C)CC(c3cc(C)c4ncc(Br)cc4c3)=NO2)c(C)n1 (centres unmarked) [compound 580]	2.96[a]
CC1(C(=O)NC2CCCCC2)CC(c2ccc3ncc(Br)cc3c2)=NO1 (centres unmarked) [compound 239]	3.63^[a]
COc1ncccc1CNC(=O)C1(C)CC(c2ccc3ncc(Br)cc3c2)=NO1 (centres unmarked) [compound 678]	2.82[a]
O=C(NC1CC1)C1(C2CC2)CC(c2ccc3ncc(Br)cc3c2)=NO1 (centres unmarked) [compound 269]	2.88[a]
C#Cc1cnc2ccc(C3=NOC(C)(C(=O)NC(C)(C)C(C)C)C3)cc2c1 (centres unmarked) [compound 320]	3.71[a]

Same assay, conditions: HPLC on reversed phase columns, method [a]: pH 2.7, 0.1% formic acid in water and acetonitrile, linear gradient 10% to 95% acetonitrile

Structure (SMILES)	log P
C#Cc1cnc2ccc(C3=NOC(C)(C(=O)NCc4cc(C#N)ccn4)C3)cc2c1 (centres unmarked) [compound 751]	2.20[a]
CC(C)(C#N)NC(=O)C1(C)CC(c2ccc3ncc(Br)cc3c2)=NO1 (centres unmarked) [compound 716]	2.68[a]
C#Cc1cnc2ccc(C3=NOC(C)(C(=O)NCc4cccnc4OC)C3)cc2c1 (centres unmarked) [compound 680]	2.52[a]
COC1(C(=O)NCCC2CCOC2)CC(c2ccc3ncc(Br)cc3c2)=NO1 (racemic) [compound 823]	2.27[a]
CC1(C(=O)NC(C2CC2)C2CC2)CC(c2ccc3ncc(Br)cc3c2)=NO1 (centres unmarked) [compound 773]	3.57[a]
COc1cncc(CNC(=O)C2(C)CC(c3ccc4ncc(Br)cc4c3)=NO2)n1 (centres unmarked) [compound 794]	2.53[a]
C#Cc1cnc2ccc(C3=NOC(C)(C(=O)NCC4(C)CCC4)C3)cc2c1 (centres unmarked) [compound 753]	3.27[a]
C/C(=N\O)NC(=O)C1(C)CC(c2ccc3ncc(Br)cc3c2)=NO1 (centres unmarked) [compound 723]	2.04[a]
CC(C)c1cccc(CNC(=O)C2(C)CC(c3ccc4ncc(Br)cc4c3)=NO2)n1 (centres unmarked) [compound 686]	2.33[a]
C#Cc1cnc2ccc(C3=NOC(C)(C(=O)NCc4ccnc(C)c4)C3)cc2c1 (centres unmarked) [compound 685]	1.27[a]
C#Cc1cnc2ccc(C3=NOC(C)(C(=O)NC(C)CN(C)C)C3)cc2c1 (centres unmarked) [compound 701]	1.42[a]
C#Cc1cnc2ccc(C3=NOC(C)(C(=O)NCc4ccc(OC)nn4)C3)cc2c1 (centres unmarked) [compound 687]	2.05[a]
CC(C)NC(=O)C1(C#N)CC(c2ccc3ncc(Br)cc3c2)=NO1 (centres unmarked) [compound 737]	2.86[a]
C#Cc1cnc2ccc(C3=NOC(C)(C(=O)NCc4ccnc(O)c4)C3)cc2c1 (centres unmarked) [compound 758]	1.54[a]
C#Cc1cnc2ccc(C3=NOC(C)(C(=O)NCC4CS(=O)(=O)CCO4)C3)cc2c1 (centres unmarked) [compound 756]	1.93[a]
COC1(C(=O)NC2CCN(C)CC2)CC(c2ccc3ncc(I)cc3c2)=NO1 (centres unmarked) [compound 702]	1.67[a]
C#Cc1cnc2ccc(C3=NOC(C)(C(=O)NNC(C)C4CC4)C3)cc2c1 (centres unmarked) [compound 770]	2.21[a]
CC1(C(=O)NCc2cnc(Cl)cn2)CC(c2ccc3ncc(Br)cc3c2)=NO1 (centres unmarked) [compound 790]	2.73[a]
C#Cc1cnc2ccc(C3=NOC(C)(C(=O)NCc4cnccc4C)C3)cc2c1 (centres unmarked) [compound 682]	1.29[a]
C#Cc1cnc2ccc(C3=NOC(C)(C(=O)NCc4cccc(C)n4)C3)cc2c1 (centres unmarked) [compound 691]	1.43[a]
CN(C)c1cc(CNC(=O)C2(C)CC(c3ccc4ncc(Br)cc4c3)=NO2)ccn1 (centres unmarked) [compound 801]	1.49[a]
C#Cc1cnc2ccc(C3=NOC(C)(C(=O)NCc4cccc(CC)n4)C3)cc2c1 (centres unmarked) [compound 749]	1.67[a]
C#Cc1cnc2ccc(C3=NOC(C)(C(=O)NCc4cnn(CC(F)(F)F)c4)C3)cc2c1 (centres unmarked) [compound 772]	2.34[a]
CCOc1ncccc1CNC(=O)C1(C)CC(c2ccc3ncc(Br)cc3c2)=NO1 (centres unmarked) [compound 788]	3.21[a]
C#Cc1cnc2ccc(C3=NOC(C)(C(=O)NC(C4CC4)C4CC4)C3)cc2c1 (centres unmarked) [compound 768]	3.21[a]
C#Cc1cnc2ccc(C3=NOC(C)(C(=O)NCc4ccnc(OC(C)CC)c4)C3)cc2c1 (centres unmarked) [compound 760]	3.06[a]
CSc1cc(CNC(=O)C2(C)CC(c3ccc4ncc(Br)cc4c3)=NO2)ccn1 (centres unmarked) [compound 799]	2.62[a]
C#Cc1cnc2ccc(C3=NOC(OC)(C(=O)NCCC4CC4)C3)cc2c1 (centres unmarked) [compound 719]	2.78[a]
CC1(C(=O)NCc2cncnc2)CC(c2ccc3ncc(Br)cc3c2)=NO1 (centres unmarked) [compound 692]	1.95[a]

Same assay, conditions: method [a]: HPLC/LC-MS on reversed phase at pH 2.7, 0.1% formic acid in water / acetonitrile, gradient 10% to 95% acetonitrile

Structure (SMILES)	log P
CCn1cc(CNC(=O)C2(CC(=O)OC)CC(c3ccc4ncc(Br)cc4c3)=NO2)c(C)n1 (racemic) [compound 386]	2.31[a]
CCOC1C(c2ccc3ncc(Br)cc3c2)=NOC1(C)C(=O)NC(C)C (racemic) [compound 393]	3.35[a]
CCn1cc(CNC(=O)C2(C)ON=C(c3ccc4ncc(Br)cc4c3)C2OC)c(C)n1 (mixture of isomers) [compound 433]	2.44[a]
C#Cc1cnc2ccc(C3=NOC(C)(C(=O)NC(C)CCCCCC)C3)cc2c1 (racemic) [compound 367]	4.19[a]

Same assay, conditions: method [a]: HPLC/LC-MS on reversed phase at pH 2.7, 0.1% formic acid in water / acetonitrile, linear gradient 10% to 95% acetonitrile

Structure (SMILES)	log P
CC1(C(=O)NCCc2ccc(Cl)cc2Cl)CC(c2ccc3ncc(Br)cc3c2)=NO1 (centres unmarked) [compound 110]	4.16^[a]
C#Cc1cnc2ccc(C3=NOC(C)(C(=O)NC4CCCCNC4=O)C3)cc2c1 (centres unmarked) [compound 230]	1.98^[a]
C#Cc1cnc2ccc(C3=NOC(C)(C(=O)NCc4cccc(Cl)c4Cl)C3)cc2c1 (centres unmarked) [compound 172]	3.58^[a]
CC(C)NC(=O)C1(CBr)CC(c2ccc3ncc(Br)cc3c2)=NO1 (centres unmarked) [compound 81]	3.04^[a]
CC1(C(=O)NCc2ncc(C(F)(F)F)cc2Cl)CC(c2ccc3ncc(Br)cc3c2)=NO1 (centres unmarked) [compound 156]	3.89^[a]
CC1(C(=O)NCCc2ccc(OC(F)(F)F)cc2)CC(c2ccc3ncc(Br)cc3c2)=NO1 (centres unmarked) [compound 211]	3.96^[a]
C#Cc1cnc2ccc(C3=NOC(C)(C(=O)NCc4ccnc(N5CCCC5)c4)C3)cc2c1 (centres unmarked) [compound 166]	1.42^[a]
C#Cc1cnc2ccc(C3=NOC(C)(C(=O)NCC#Cc4ccc(Cl)cc4)C3)cc2c1 (centres unmarked) [compound 229]	3.65^[a]
CC(C)NC(=O)C1(C)CC(c2ccc3ncc([S+](C)[O-])cc3c2)=NO1 (centres unmarked) [compound 77]	1.49^[a]
CC1(C(=O)NCc2cccnc2)CC(c2ccc3ncc(Br)cc3c2)=NO1 (centres unmarked) [compound 92]	1.41^[a]
CC1(C(=O)NCc2ccc(Cl)cc2)CC(c2ccc3ncc(Br)cc3c2)=NO1 (centres unmarked) [compound 94]	3.61^[a]

Same assay, conditions: method [a]: HPLC/LC-MS on reversed phase at pH 2.7, 0.1% formic acid in water and acetonitrile, linear gradient 10% to 95% acetonitrile

Structure (SMILES)	Log P
CC1(C(=O)NC2CC2)CC(c2ccc3ncccc3c2)=NO1 (centres unmarked) [compound 3]	1.04^[a]

Same assay, conditions: reversed phase HPLC column; HPLC reversed phase, pH 2.7, 0.1% formic acid in water / acetonitrile, linear gradient 10% to 95% acetonitrile; calibration with alkan-2-ones; read-out: log P (HCOOH)

Structure (SMILES)	chromatographic logP
O/N=C(\Cl)c1ccc2ncc(I)cc2c1 [3-Iodo-N-hydroxyquinoline-6-carboximidoyl chloride]	2.63
CCn1cc(CNC(=O)C23OCCCC2C(c2ccc4ncc(Br)cc4c2)=NO3)c(C)n1 (centres unmarked) [Compound No. 266]	2.59
